Results: patent EP2945607B1, “COSMETIC OR DERMATOLOGICAL EMULSION COMPRISING A MEROCYANINE AND AN EMULSIFYING SYSTEM CONTAINING AN ALKALI METAL SALT OF A PHOSPHORIC ACID ESTER OF A FATTY ALCOHOL” (L'Oréal, priority 2013, dated 2014)

Experiment: Color of the formulations: colorimetry of thin films on contrast map (spectro-colorimeter Minolta CM2600D), L*a*b* system
Type: physicochemical
Conditions: result in words; equivalent formulations (2 % merocyanine)
Description: Protocol for evaluating the color of the formulations
The color of the formulations was evaluated after preparation of thin films on contrast map. The formulations were deposited within a circle of 2.2 cm of diameter and planed to obtain thicknesses of reproducible deposit. The colorimetric measures were then made by means of a spectro-colorimeter Minolta CM2600D in two points of the film. This operation is twice reproduced, which leads to 4 experimental values by formulation.
The results are expressed in the system (L *, has *, b *) in which L* represents the luminance, a* represents the red-green axis (-a* = green, +a* = red) and b* represents the yellow-blue axis (-b* blue, +b* yellow). So, a* and b* express the shade of the compound.
The difference of color ΔE* was calculated from the variations ΔL*, Δa* et Δb* between the compound (2) and the compound MC11 with the following equation : ((ΔE*))^2 = ((ΔL*))^2 + ((Δa*))^2 + ((Δb*))^2 [formula] • ΔL* = L* formulation with compound MC11 - L* formulation with compound (2) • Δa* = a* formulation with compound MC11 - a* formulation with compound (2) • Δb* = b* formulation with compound MC11 - b* formulation with compound (2)
We consider that the difference of color between the two compounds is significant if ΔE* > 2.

CCOCCOC(=O)/C(C#N)=C1\C=C(NCCCOC)CCC1 [Compound (2), 2-ethoxyethyl (2Z)-cyano{3-[(3-methoxypropyl)amino]cyclohex-2-en-1-ylidene}ethanoate]
color compared with compound MC11 of WO2008/090066: significantly less yellow
